The first test deals with contortions induced by acetylcholine bromide in mice. Nature of the test: Analgesic activity: inhibition of the contortions induced by acetylcholine bromide in mice (Collier's method). Format: in vivo, Swiss male mice. To be noted: Mus musculus, po; 160 mg/kg, administered orally; acetylcholine bromide 7.2 mg/kg i.p.; mean of the values at 40 and 120 minutes; read-out: % inhibition of contortions. The method, then:
(§1) Swiss male mice weighing 17-22 grams are used. Groups containing a minimum of 4 animals are used.
Contortions are induced by the intraperitoneal injection of acetylcholine bromide (7.2 mg/kg, dissolved in physiological serum, a volume of 10 ml/kg of weight being administered) at the start of the experiment and the number of contortions is counted for 5 minutes, this being the reference number for each animal (mice with fewer than 2 contortions are rejected). Immediately afterwards, the test products are administered orally, at a dose of 160 mg/kg, in the form of a suspension or solution in gum arabic at a concentration of 5% (w/v) in distilled water. 40 and 120 minutes after the treatment, acetylcholine bromide is administered again, the contortions are noted and the readings at 40 and 120 minutes are evaluated, taking the contortions of the initial reading as the reference.
In the case of `CCCCn1ccnc1C(OCCN(C)C)c1ccc(C(F)(F)F)cc1` (stereo not drawn) [Example 14], the inhibition in vivo at 160 mg/kg came to 85%.

With `Cn1ccnc1C(O)c1ccc(Cl)cc1` (stereo not drawn) [Example 107], the inhibition in vivo at 160 mg/kg turned out to be 57.5%.

`CCCCn1ccnc1C(C)(OCCCN(C)C)c1ccc(Cl)cc1` (stereo not drawn) [Example 77]: the inhibition in vivo at 160 mg/kg is 100%.

With `CCC(OCCCN(C)C)(c1ccc(Cl)cc1)c1nccn1C` (stereo not drawn) [Example 61], the inhibition in vivo at 160 mg/kg amounted to 97.5%.

For the compound `CN(C)CCCOC(c1ccc(Cl)cc1)c1nccn1C` (stereo not drawn) [Example 70], the inhibition in vivo at 160 mg/kg came out at 100%.

For `COc1cc(C(C)(O)c2nccn2C)cc(OC)c1OC` (stereo not drawn) [Example 137], the inhibition in vivo at 160 mg/kg amounted to 85%.

`CCCCC(OCCN(C)C)(c1cccc(Cl)c1)c1nccn1C` (stereo not drawn) [Example 9]: the inhibition in vivo at 160 mg/kg is 97.5%.

As for `CCCCn1ccnc1C(O)(CCCC)c1ccc(Cl)cc1Cl` (stereo not drawn) [Example 144], the inhibition in vivo at 160 mg/kg turned out to be 88.8%.

As for `COc1ccc(C(C)(O)c2nccn2C)cc1` (stereo not drawn) [Example 133], the inhibition in vivo at 160 mg/kg was 52.5%.

For the compound `Cn1ccnc1C(O)c1cccc(C(F)(F)F)c1` (stereo not drawn) [Example 110, 1-methyl-α-(3-trifluoromethylphenyl)-1H-imidazole-2-methanol], the inhibition in vivo at 160 mg/kg turned out to be 57.5%.

`COc1ccc(C(OCCCN(C)C)c2nccn2C)cc1` (stereo not drawn) [Example 75]: the inhibition in vivo at 160 mg/kg was 100%.

Regarding `COc1ccc(C(C)(OCCCN(C)C)c2nccn2C)cc1` (stereo not drawn) [Example 69], the inhibition in vivo at 160 mg/kg is 95%.

As for `CN(C)CCOC(c1cccc(Cl)c1)c1nccn1C` (stereo not drawn) [Example 4], the inhibition in vivo at 160 mg/kg turned out to be 95%.

As for `CN(C)CCCOC(c1ccc(C(F)(F)F)cc1)c1nccn1C` (stereo not drawn) [Example 74], the inhibition in vivo at 160 mg/kg is 100%.

Regarding `CCCCC(O)(c1cccc(Cl)c1)c1nccn1C` (stereo not drawn) [Example 119], the inhibition in vivo at 160 mg/kg amounted to 90%.

Turning to `Cn1ccnc1C(C)(OCCCN1CCCCC1)c1ccc(C(F)(F)F)cc1` (stereo not drawn) [Example 83], the inhibition in vivo at 160 mg/kg turned out to be 88.3%.

Take `CN(C)CCOC(C)(c1ccc(Cl)cc1)c1nccn1C` (stereo not drawn) [Example 2]: the inhibition in vivo at 160 mg/kg stood at 100%.

Turning to `CCCCn1ccnc1C(O)c1cc(OC)c(OC)c(OC)c1` (stereo not drawn) [Example 117], the inhibition in vivo at 160 mg/kg worked out at 60%.

With `CCCCC(O)(c1cccc(C(F)(F)F)c1)c1nccn1C` (stereo not drawn) [Example 129], the inhibition in vivo at 160 mg/kg is 55%.

As to `CN(C)CCCOC(c1cccc(Cl)c1)c1nccn1C` (stereo not drawn) [Example 60], the inhibition in vivo at 160 mg/kg was 82.5%.

As to `CN(C)CCCOC(C)(c1ccc(Cl)cc1)c1nccn1C` (stereo not drawn) [Example 59, α-(4-chlorophenyl)-α-methyl-1-methyl-0-(3-dimethylaminopropyl)-1H-imidazole-2-methanol], the inhibition in vivo at 160 mg/kg turned out to be 100%.

With `CN(C)CCOC(C)(c1ccccc1Cl)c1nccn1C` (stereo not drawn) [Example 5], the inhibition in vivo at 160 mg/kg was 100%.

For `Cn1ccnc1C(C)(O)c1ccc(Cl)cc1` (stereo not drawn) [Example 121, α-(4-chlorophenyl)-α-methyl-1-methyl-1H-imidazole-2-methanol], the inhibition in vivo at 160 mg/kg turned out to be 70%.

On to `CCCCC(OCCCN(C)C)(c1cccc(C(F)(F)F)c1)c1nccn1C` (stereo not drawn) [Example 76], for which the inhibition in vivo at 160 mg/kg amounted to 100%.

For `CCCCn1ccnc1C(O)(CCCC)c1cc(OC)c(OC)c(OC)c1` (stereo not drawn) [Example 141], the inhibition in vivo at 160 mg/kg was 62.5%.

Take `CN(C)CCOC(C)(c1cccc(Cl)c1)c1nccn1C` (stereo not drawn) [Example 8]: the inhibition in vivo at 160 mg/kg is 95%.

As to `CN(C)CCOC(C)(c1ccc(F)cc1)c1nccn1C` (stereo not drawn) [Example 6], the inhibition in vivo at 160 mg/kg came to 75%.

Take `CCCCn1ccnc1C(O)(CCCC)c1ccccc1Cl` (stereo not drawn) [Example 142]: the inhibition in vivo at 160 mg/kg was found to be 80%.

In the case of `CN(C)CCCOC(C)(c1ccc(C(F)(F)F)cc1)c1nccn1C` (stereo not drawn) [Example 72], the inhibition in vivo at 160 mg/kg turned out to be 100%.

`CN(C)CCOC(C)(c1cccc(C(F)(F)F)c1)c1nccn1C` (stereo not drawn) [Example 7]: the inhibition in vivo at 160 mg/kg was 95%.

For the compound `CN(C)CCCOC(C)(c1ccc(F)cc1)c1nccn1C` (stereo not drawn) [Example 64], the inhibition in vivo at 160 mg/kg was 100%.

Turning to `Cn1ccnc1C(O)c1ccc(C(F)(F)F)cc1` (stereo not drawn) [Example 111], the inhibition in vivo at 160 mg/kg is 87.5%.

In the case of `CN(C)CCCOC(c1cccc(C(F)(F)F)c1)c1nccn1C` (stereo not drawn) [Example 73], the inhibition in vivo at 160 mg/kg turned out to be 100%.

As to `CCCCC(O)(c1ccccc1Cl)c1nccn1C` (stereo not drawn) [Example 127], the inhibition in vivo at 160 mg/kg amounted to 70%.

`COc1cc(C(C)(OCCCN(C)C)c2nccn2C)cc(OC)c1OC` (stereo not drawn) [Example 68]: the inhibition in vivo at 160 mg/kg was determined as 95%.

As for `Cn1ccnc1C(OCCCN1CCCCC1)c1ccc(Cl)cc1` (stereo not drawn) [Example 82], the inhibition in vivo at 160 mg/kg was determined as 83.8%.

In the case of `Cn1ccnc1C(C)(O)c1ccccc1Cl` (stereo not drawn) [Example 126], the inhibition in vivo at 160 mg/kg came out at 65%.

The subject of a further test is contortions induced by phenylbenzoquinone in mice. Nature of the test: Analgesic activity: inhibition of the contortions induced by phenylbenzoquinone in mice (Siegmund's method). The format is in vivo, Swiss male mice. To be noted: Mus musculus, po, read-out: % inhibition of contortions. The method, then: Analgesic activity: Inhibition of the contortions induced by phenylbenzoquinone in mice--Siegmund's method (E. Siegmund, R. Cadmus and G. Lu, Proc Soc. Exp. Biol. Med., 95, 729 (1957))
as §1
Contortions are induced by the intraperitoneal injection of phenyl-p-benzoquinone (25 ml/kg of a 0.02% solution in a solution of ethanol at a concentration of 5% (v/v) in distilled water, with Evans blue in a proportion of 0.1% (w/v)) and are counted for 15 minutes as from the time of injection. Each product is suspended or dissolved in gum arabic at a concentration of 5% (w/v) in distilled water and is administered orally, at a dose of 160 mg/kg, 60 minutes before the injection of phenylbenzoquinone. The inhibition of contortions due to each product is determined, taking as the reference the contortions in a group of control animals to which only the vehicle is administered orally 60 minutes before the phenylbenzoquinone.
Turning to `Cn1nccc1C(OCCN1CCCC1)c1ccccc1` (stereo not drawn) [Example 34], the inhibition in vivo at 160 mg/kg worked out at 40%.

Staying with this test, now noted: Mus musculus, po; 160 mg/kg, administered orally 60 minutes before phenylbenzoquinone i.p.; contortions counted for 15 minutes; read-out: % inhibition of contortions.
As for `COc1cc(C(OCCN(C)C)c2ccnn2C)cc(OC)c1OC` (stereo not drawn) [Example 33], the inhibition in vivo at 160 mg/kg was determined as 35%.

Turning to `CN(C)CCCOC(C)(c1ccccc1)c1ccnn1C` (stereo not drawn) [Example 95], the inhibition in vivo at 160 mg/kg came out at 45%.

As to `CN(C)CCCOC(c1ccc(Cl)cc1)(c1nccn1C)C1CCN(C)CC1` (stereo not drawn) [Example 91], the inhibition in vivo at 160 mg/kg came to 57.5%.

In the case of `CN(C)CCCOC(C)(c1ccc(Cl)c(Cl)c1)c1nccn1C` (stereo not drawn) [Example 86], the inhibition in vivo at 160 mg/kg was 98.8%.

Turning to `CN(C)CCCOC(c1ccccc1)c1ccnn1C` (stereo not drawn) [Example 94], the inhibition in vivo at 160 mg/kg is 40%.

On to `Cc1cc(C(OCCN(C)C)c2ccccc2)n(C)n1` (stereo not drawn) [Example 39], for which the inhibition in vivo at 160 mg/kg is 37.5%.

Consider `CN(C)CCOC(C)(c1ccccc1)c1ccnn1C` (stereo not drawn) [Example 32], for which the inhibition in vivo at 160 mg/kg turned out to be 37.5%.

As to `CN(C)CCCOC(c1ccc(Cl)c(Cl)c1)c1nccn1C` (stereo not drawn) [Example 87], the inhibition in vivo at 160 mg/kg was 77.5%.

`CN(C)CCOC(C)(c1ccc(Cl)cc1)c1nccn1CCN1CCCCC1` (stereo not drawn) [Example 20]: the inhibition in vivo at 160 mg/kg came to 25%.

As to `CN(C)CCOC(C)(c1ccc(Cl)c(Cl)c1)c1nccn1C` (stereo not drawn) [Example 18], the inhibition in vivo at 160 mg/kg worked out at 82.5%.

In the case of `CN(C)CCCn1ccnc1C(C)(O)c1ccc(Cl)cc1` (stereo not drawn) [Example 146], the inhibition in vivo at 160 mg/kg was 28.5%.

`CCCCn1nccc1C(OCCN(C)C)c1ccccc1` (stereo not drawn) [Example 27]: the inhibition in vivo at 160 mg/kg was determined as 40%.

As for `Cc1cc(C(C)(OCCN(C)C)c2ccccc2)n(C)n1` (stereo not drawn) [Example 38], the inhibition in vivo at 160 mg/kg worked out at 42.5%.

Consider `Cn1ccnc1C(O)c1ccc(Cl)c(Cl)c1` (stereo not drawn) [Example 113], for which the inhibition in vivo at 160 mg/kg was 57.5%.

As to `CCCCn1nccc1C(C)(OCCN(C)C)c1ccc(Cl)cc1` (stereo not drawn) [Example 30], the inhibition in vivo at 160 mg/kg stood at 27.5%.

For the compound `CCCCn1ccnc1C(O)c1ccc(Cl)cc1` (stereo not drawn) [Example 116], the inhibition in vivo at 160 mg/kg worked out at 27.5%.

In the case of `CN(C)CCOC(c1ccc(Cl)c(Cl)c1)c1nccn1C` (stereo not drawn) [Example 19], the inhibition in vivo at 160 mg/kg was 87.5%.

For another test, the system named is contortions induced by acetic acid in mice. The test is described as follows: Analgesic activity: inhibition of the contortions induced by acetic acid in mice (Koster's method). The format is in vivo, Swiss male mice. The settings on record: Mus musculus, po; 160 mg/kg, administered orally 60 minutes before acetic acid i.p.; contortions counted for 15 minutes; read-out: % inhibition of contortions. The method, then:
Swiss male mice weighing 17-22 grams are used. Groups containing a minimum of 4 animals for each dose are used.
Each product is suspended or dissolved in gum arabic at a concentration of 5% (w/v) in distilled water and is administered orally, at a dose of 160 mg/kg, 60 minutes before the injection of acetic acid.
As to `CN(C)CCCOC(C)(c1ccc(Cl)c(Cl)c1)c1nccn1C` (stereo not drawn) [Example 86], the inhibition in vivo at 160 mg/kg was determined as 50%.

As to `CCCCC(O)(c1cccc(Cl)c1)c1nccn1C` (stereo not drawn) [Example 119], the inhibition in vivo at 160 mg/kg was 45%.

Take `Cn1ccnc1C(C)(OCCN1CCCC1)c1cccc(Cl)c1` (stereo not drawn) [Example 12]: the inhibition in vivo at 160 mg/kg amounted to 82.5%.

Turning to `CN(C)CCCOC(c1cccc(Cl)c1)c1nccn1C` (stereo not drawn) [Example 60], the inhibition in vivo at 160 mg/kg worked out at 62.5%.

On to `CN(C)CCCOC(C)(c1ccc(Cl)cc1)c1nccn1C` (stereo not drawn) [Example 59, α-(4-chlorophenyl)-α-methyl-1-methyl-0-(3-dimethylaminopropyl)-1H-imidazole-2-methanol], for which the inhibition in vivo at 160 mg/kg came to 87.5%.

As to `CN(C)CCOC(C)(c1ccc(F)cc1)c1nccn1C` (stereo not drawn) [Example 6], the inhibition in vivo at 160 mg/kg came out at 50%.

With `CN(C)CCOC(C)(c1cccc(C(F)(F)F)c1)c1nccn1C` (stereo not drawn) [Example 7], the inhibition in vivo at 160 mg/kg turned out to be 67.5%.

For the compound `CN(C)CCCOC(C)(c1ccc(F)cc1)c1nccn1C` (stereo not drawn) [Example 64], the inhibition in vivo at 160 mg/kg came to 50%.

The values above are taken from patent US5017596A, “Arylpyrazolylcarbinol compounds with analgesic activity” (Laboratorios del Dr. Esteve, S.A., priority 1987, dated 1991).
